Key:
[1] = Drug uptake in human T24 cell cytoplasm at 2 uM after 1 hr by Dil-C28 dye staining-based inverted microscopic analysis; assay type: ADME; details: t-24, 1 h
[2] = Drug uptake in human T24 cell cytoskeleton at 2 uM after 1 hr by Dil-C28 dye staining-based inverted microscopic analysis; assay type: ADME; details: t-24, 1 h

Drug uptake [1] | Drug uptake [2] | SMILES
Active | – | COc1ccc2cc(C(=O)NCCOCCOCCOC(=O)/C(C#N)=C/c3ccc(N4CCCCC4)s3)c(=O)oc2c1
– | Active | CCCCCCN(CCCCCC)c1ccc(/C=C(\C#N)C(=O)OCCCCCNC(=O)c2cc3ccc(OC)cc3oc2=O)s1
